Literature values in US12091391B2, “Reagents and methods for bioorthogonal labeling of biomolecules in living cells” (Oregon State University, priority 2015, dated 2024).

half-life in vivo: 16.1 h
Substance: cyclopropane-fused trans cyclooctene [sTCO]
